This note sets out measurements from PubChem BioAssay AID248 (DTP/NCI, 2004).

Inconclusive results and toxic doses are left out.

This assay deals with L1210 leukemia ip in BDF1 mice, survival T/C. Nature of the assay: NCI In Vivo Anticancer Drug Screen. Data for tumor model L1210 Leukemia (intraperitoneal) in B6D2F1 (BDF1) mice. The following applies: endpoint: mean survival time, higher = longer survival. The procedure, abridged:
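Survival endpoint. Drug-treated group vs vehicle group, expressed as T divided by C. Tumor passaged by transplantation.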

[1] abbreviates: dose: 100.0 mg/kg/injection, schedule: Q04DX003 (ip), vehicle: saline with Tween-80.
Where [2] appears, read: dose: 200.0 mg/kg/injection, schedule: Q04DX003 (ip), vehicle: saline with Tween-80.
[3] abbreviates: dose: 400.0 mg/kg/injection, schedule: Q04DX003 (ip), vehicle: saline with Tween-80.
Where [4] appears, read: dose: 100.0 mg/kg/injection, schedule: Q01DX001 (ip), vehicle: saline.
Setting [5] is: dose: 100.0 mg/kg/injection, schedule: Q01DX009 (ip), vehicle: Klucel (hydroxypropylcellulose) (HPC).
The mark [6] stands for this setting: dose: 100.0 mg/kg/injection, schedule: Q04DX003 (ip), vehicle: Klucel (hydroxypropylcellulose) (HPC).
Where [7] appears, read: dose: 200.0 mg/kg/injection, schedule: Q01DX001 (ip), vehicle: saline.
The mark [8] stands for this setting: dose: 200.0 mg/kg/injection, schedule: Q01DX009 (ip), vehicle: Klucel (hydroxypropylcellulose) (HPC).
Where [9] appears, read: dose: 200.0 mg/kg/injection, schedule: Q04DX003 (ip), vehicle: Klucel (hydroxypropylcellulose) (HPC).
Setting [10] is: dose: 400.0 mg/kg/injection, schedule: Q01DX001 (ip), vehicle: saline.
Where [11] appears, read: dose: 400.0 mg/kg/injection, schedule: Q01DX009 (ip), vehicle: Klucel (hydroxypropylcellulose) (HPC).
[12] abbreviates: dose: 400.0 mg/kg/injection, schedule: Q04DX003 (ip), vehicle: Klucel (hydroxypropylcellulose) (HPC).
[13] abbreviates: dose: 100.0 mg/kg/injection, schedule: Q01DX001 (ip), vehicle: carboxymethylcellulose (CMC).
The mark [14] stands for this setting: dose: 200.0 mg/kg/injection, schedule: Q01DX001 (ip), vehicle: carboxymethylcellulose (CMC).
[15] abbreviates: dose: 400.0 mg/kg/injection, schedule: Q01DX001 (ip), vehicle: carboxymethylcellulose (CMC).
Where [16] appears, read: dose: 100.0 mg/kg/injection, schedule: Q04DX003 (ip), vehicle: saline.

Consider `N#CCCP(=O)(CCC#N)CCP(=O)(CCC#N)CCC#N`, for which the T/C was 91 % of control under setting [1], 91 % of control under setting [2] and 94 % of control under setting [3].

With `COc1ccc(OC)c([N+](=O)[O-])c1`, the T/C is 100 % of control under setting [4]; 100 % of control under setting [5]; 93 % of control under setting [6]; 105 % of control under setting [7]; 94 % of control under setting [8]; 95 % of control under setting [9]. For the same compound, the T/C was 96 % of control under setting [10], 88 % of control under setting [11] and 93 % of control under setting [12].

For `CCN(CC)CCn1cnc2cc([N+](=O)[O-])ccc21`, the T/C is, setting by setting: (dose: 20.0 mg/kg/injection, schedule: Q01DX001 (ip), vehicle: Klucel (hydroxypropylcellulose) (HPC)) 101 % of control; (dose: 40.0 mg/kg/injection, schedule: Q01DX001 (ip), vehicle: Klucel (hydroxypropylcellulose) (HPC)) 98 % of control.

On to `O=C(CF)[O][Sb]([O]C(=O)CF)([c]1ccccc1)([c]1ccccc1)[c]1ccccc1`, for which the T/C runs as follows: (dose: 5.0 mg/kg/injection, schedule: Q04DX003 (ip), vehicle: saline with Tween-80) 92 % of control; (dose: 10.0 mg/kg/injection, schedule: Q04DX003 (ip), vehicle: saline with Tween-80) 101 % of control; (dose: 20.0 mg/kg/injection, schedule: Q04DX003 (ip), vehicle: saline with Tween-80) 106 % of control.

Consider `O=C(NC1CCCCC1)c1ccccc1`, for which the T/C by setting is: under setting [6], 100 % of control; under setting [9], 93 % of control; under setting [12], 96 % of control.

Turning to `Cc1cccc(C(=O)O)[n+]1[O-]`, the T/C is, setting by setting: (dose: 50.0 mg/kg/injection, schedule: Q01DX001 (ip), vehicle: carboxymethylcellulose (CMC)) 100 % of control; under setting [13], 95 % of control; under setting [14], 98 % of control; under setting [15], 100 % of control.

As to `CCC/C(C)=N\O`, the T/C under setting [1] was 102 % of control, the T/C under setting [2] is 111 % of control and the T/C under setting [3] was 100 % of control.

For `COc1cc(NS(C)(=O)=O)ccc1Nc1c2ccc([N+](=O)[O-])cc2nc2c(C)c(C)ccc12`, the T/C (dose: 0.48 mg/kg/injection, schedule: Q01DX009 (ip), vehicle: saline) is 113 % of control; the T/C (dose: 2.7 mg/kg/injection, schedule: Q01DX009 (ip), vehicle: saline) is 151 % of control; the T/C (dose: 4.1 mg/kg/injection, schedule: Q01DX009 (ip), vehicle: saline) is 169 % of control; the T/C (dose: 6.25 mg/kg/injection, schedule: Q01DX009 (ip), vehicle: water) was 106 % of control; the T/C (dose: 12.5 mg/kg/injection, schedule: Q01DX009 (ip), vehicle: saline) is 157 % of control; the T/C (dose: 12.5 mg/kg/injection, schedule: Q01DX009 (ip), vehicle: water) was 116 % of control. Also, the T/C (dose: 22.0 mg/kg/injection, schedule: Q04DX003 (ip), vehicle: saline) is 114 % of control; the T/C (dose: 25.0 mg/kg/injection, schedule: Q01DX001 (ip), vehicle: water) is 122 % of control; the T/C (dose: 25.0 mg/kg/injection, schedule: Q01DX009 (ip), vehicle: saline) was 102 % of control; the T/C (dose: 25.0 mg/kg/injection, schedule: Q01DX009 (ip), vehicle: water) was 124 % of control; the T/C (dose: 25.0 mg/kg/injection, schedule: Q01DX009 (sc), vehicle: saline) is 106 % of control; the T/C (dose: 35.0 mg/kg/injection, schedule: Q04DX003 (ip), vehicle: saline) is 120 % of control. Also, the T/C was 123 % of control (dose: 50.0 mg/kg/injection, schedule: Q01DX009 (sc), vehicle: saline); 115 % of control (dose: 100.0 mg/kg/injection, schedule: Q01DX009 (sc), vehicle: saline); 124 % of control (dose: 200.0 mg/kg/injection, schedule: Q01DX009 (sc), vehicle: saline); 150 % of control (dose: 400.0 mg/kg/injection, schedule: Q01DX009 (ip), vehicle: water).

Take `OC(C/C=C/c1ccccc1)c1ccccc1` (configuration not stated): the T/C (dose: 50.0 mg/kg/injection, schedule: Q01DX009 (ip), vehicle: Klucel (hydroxypropylcellulose) (HPC)) is 91 % of control and the T/C under setting [5] was 97 % of control.

`O=C(O)C1CCCS1(=O)=O` (configuration not stated): the T/C was 96 % of control under setting [16]; 94 % of control (dose: 200.0 mg/kg/injection, schedule: Q04DX003 (ip), vehicle: saline); 88 % of control (dose: 400.0 mg/kg/injection, schedule: Q04DX003 (ip), vehicle: saline).

For `COC(=O)CC(=O)c1ccc(C)cc1`, the T/C is, setting by setting: under setting [5], 101 % of control; under setting [6], 108 % of control; under setting [8], 95 % of control; under setting [9], 111 % of control; under setting [11], 104 % of control; under setting [12], 95 % of control.

Turning to `CC(C)(C)C(C)(C)O`, the T/C (dose: 75.0 mg/kg/injection, schedule: Q01DX001 (ip), vehicle: saline with Tween-80) was 100 % of control; the T/C (dose: 150.0 mg/kg/injection, schedule: Q01DX001 (ip), vehicle: saline with Tween-80) is 97 % of control; the T/C (dose: 300.0 mg/kg/injection, schedule: Q01DX001 (ip), vehicle: saline with Tween-80) is 92 % of control.

As to `CCOc1cc(OCC)c(C=O)c(OCC)c1`, the T/C reads like this: (dose: 100.0 mg/kg/injection, schedule: Q01DX009 (ip), vehicle: other) 96 % of control; under setting [7], 88 % of control; (dose: 200.0 mg/kg/injection, schedule: Q01DX009 (ip), vehicle: other) 94 % of control; under setting [10], 102 % of control; (dose: 400.0 mg/kg/injection, schedule: Q01DX009 (ip), vehicle: other) 97 % of control.

Consider `O=C(O)c1nc[nH]c1C(=O)O`, for which the T/C is 102 % of control (dose: 100.0 mg/kg/injection, schedule: Q01DX009 (ip), vehicle: saline); 93 % of control under setting [6]; 104 % of control (dose: 200.0 mg/kg/injection, schedule: Q01DX009 (ip), vehicle: saline); 96 % of control under setting [9]; 94 % of control (dose: 400.0 mg/kg/injection, schedule: Q01DX009 (ip), vehicle: saline); 88 % of control under setting [12].

Turning to `NC(=O)NC1OC(COC(=O)c2ccccc2)C(OC(=O)c2ccccc2)C1OC(=O)c1ccccc1` (configuration not stated), the T/C is, setting by setting: (dose: 100.0 mg/kg/injection, schedule: Q01DX009 (ip), vehicle: saline with Tween-80) 89 % of control; under setting [1], 92 % of control; (dose: 200.0 mg/kg/injection, schedule: Q01DX009 (ip), vehicle: saline with Tween-80) 90 % of control; under setting [2], 94 % of control; (dose: 400.0 mg/kg/injection, schedule: Q01DX009 (ip), vehicle: saline with Tween-80) 89 % of control; under setting [3], 94 % of control.

Take `CC(C)N(Cl)S(C)(=O)=O`: under setting [16], the T/C is 89 % of control.

`CCOC(=O)C1(C(=O)OCC)CCC2Nc3ccccc3C(=O)N21` (configuration not stated): the T/C by setting is: (dose: 50.0 mg/kg/injection, schedule: Q04DX003 (ip), vehicle: Klucel (hydroxypropylcellulose) (HPC)) 99 % of control; under setting [6], 101 % of control; under setting [9], 87 % of control.

With `O=C1c2ccccc2CC1(c1ccccc1)c1ccccc1`, the T/C was 91 % of control under setting [13], 94 % of control under setting [14] and 94 % of control under setting [15].

Regarding `CCN(CC)C(=S)S.[Cu+2]`, the T/C is 105 % of control under setting [4], 102 % of control under setting [7] and 105 % of control under setting [10].

Take `CCCC[N+](C)(CC(C)C)C1CCCCCCC1` (configuration not stated): the T/C by setting is: (dose: 75.0 mg/kg/injection, schedule: Q01DX001 (ip), vehicle: carboxymethylcellulose (CMC)) 104 % of control; (dose: 75.0 mg/kg/injection, schedule: Q01DX001 (ip), vehicle: saline) 96 % of control; (dose: 150.0 mg/kg/injection, schedule: Q01DX001 (ip), vehicle: saline) 93 % of control.
